Test results as given in the NIST ThermoML archive (doi:10.1021/je100581m).
Several values for one entry are separate records, joined by “and”; a condition that tells them apart may be missing. Equal values may be shown once.

Tests used:
[1] = xn = mol fraction of the nth substance listed; conditions: Liquid, Vibrating tube method, x1 = 1
[2] = Liquid, Vibrating tube method

CCCO [propan-1-ol] + C=CC(C)(O)CCC=C(C)C
mass density [kg/m3], [1]
Conditions	100 kPa	5000 kPa	10000 kPa	15000 kPa	20000 kPa
283.15 K	810.9	814.7	818.1	821.7	824.9
298.15 K	799	803	806.9	810.6	814.1
313.15 K	786.8	791.2	795.3	799.3	803.1
328.15 K	774.5	779.1	783.7	787.8	791.9

CC(C)O [propan-2-ol] + C=CC(C)(O)CCC=C(C)C
mass density [kg/m3], [1]
Conditions	283.15 K	283.18 K	298.15 K	313.15 K	328.15 K	328.18 K
100 kPa	793.7	–	781.2	768.1	754.4	–
5000 kPa	797.5	–	785.5	773	759.6	–
10000 kPa	801.3	–	789.7	777.5	–	764.8
15000 kPa	–	805.2	793.8	781.9	769.5	–
20000 kPa	808.9	–	797.6	786.1	774	–

CCO [ethanol]
mass density [kg/m3], [2]
Conditions	100 kPa	5000 kPa	10000 kPa	15000 kPa	20000 kPa
283.15 K	797.7	801.8	805.6	809.6	813.1
298.15 K	784.9	789.3	793.6	797.7	801.6
313.15 K	771.9	776.8	781.3	785.7	789.9
328.15 K	758.6	763.8	768.9	773.6	778.1

CCCO [propan-1-ol]
mass density [kg/m3], [2]
Conditions	100 kPa	5000 kPa	10000 kPa	15000 kPa	20000 kPa
283.15 K	810.9	814.7	818.1	821.7	824.9
298.15 K	799	803	806.9	810.6	814.1
313.15 K	786.8	791.2	795.3	799.3	803.1
328.15 K	774.5	779.1	783.7	787.8	791.9

CC(C)O [propan-2-ol]
mass density [kg/m3], [2]
Conditions	283.15 K	283.18 K	298.15 K	313.15 K	328.15 K	328.18 K
100 kPa	793.7	–	781.2	768.1	754.4	–
5000 kPa	797.5	–	785.5	773	759.6	–
10000 kPa	801.3	–	789.7	777.5	–	764.8
15000 kPa	–	805.2	793.8	781.9	769.5	–
20000 kPa	808.9	–	797.6	786.1	774	–

C=CC(C)(O)CCC=C(C)C (configuration not stated) [3,7-dimethyl-1,6-octadien-3-ol]
mass density, [2]
Conditions	283.15 K	283.18 K	298.15 K	313.15 K	328.15 K	328.18 K
100 kPa	869.2 kg/m3 and 869.5 kg/m3	–	856.9 kg/m3 and 857.3 kg/m3	844.1 kg/m3 and 844.5 kg/m3	831.3 kg/m3 and 831.7 kg/m3	–
5000 kPa	872.3 kg/m3 and 872.6 kg/m3	–	860.1 kg/m3 and 860.6 kg/m3	847.8 kg/m3 and 848.2 kg/m3	835.2 kg/m3 and 835.6 kg/m3	–
10000 kPa	875.2 kg/m3 and 875.7 kg/m3	–	863.5 kg/m3 and 863.9 kg/m3	851.3 kg/m3 and 851.6 kg/m3	839.1 kg/m3 and 839.5 kg/m3	839.5 kg/m3
15000 kPa	878.2 kg/m3 and 878.7 kg/m3	878.7 kg/m3	866.6 kg/m3 and 867 kg/m3	854.8 kg/m3 and 855 kg/m3	842.7 kg/m3 and 843.1 kg/m3	–
20000 kPa	881 kg/m3 and 881.5 kg/m3	–	869.6 kg/m3 and 870 kg/m3	858.1 kg/m3 and 858.4 kg/m3	846.3 kg/m3 and 846.7 kg/m3	–

CCO [ethanol] + C=CC(C)(O)CCC=C(C)C
mass density [kg/m3], [1]
Conditions	100 kPa	5000 kPa	10000 kPa	15000 kPa	20000 kPa
283.15 K	797.7	801.8	805.6	809.6	813.1
298.15 K	784.9	789.3	793.6	797.7	801.6
313.15 K	771.9	776.8	781.3	785.7	789.9
328.15 K	758.6	763.8	768.9	773.6	778.1
